ChEMBL document CHEMBL1201862, “PubChem BioAssay data set” (2004)
Values joined by “and” are separate entries in the source; they are usually repeats but may differ in a detail not shown here. Equal entries are not always repeated.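 A five-concentration, 48-hour dose response in 96-well plates underlies each endpoint, interpolated linearly between surrounding concentrations. GI50 is the concentration that inhibits growth by half.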 Active and inactive are the calls of the source. Cut-off read from the data, not from the text of the source: active = GI50 up to about 1.1 µM and inactive = higher.

Assays:
Experiment in all cases: NCI anticancer screen, dose series, 48 h
786-0 = system: 786-0
HOP-18 = system: HOP-18
SNB-78 = system: SNB-78
IGROV-1 = system: IGROV-1
HCT-116 = system: HCT-116
SK-MEL-2 = system: SK-MEL-2
U-251 = system: U-251
NCI-H522 = system: NCI-H522
SK-OV-3 = system: SK-OV-3
HT-29 = system: HT-29
SF-539 = system: SF-539
KM12 = system: KM12
SN12C = system: SN12C
K562 = system: K562
UACC-62 = system: UACC-62
M14 = system: M14
EKVX = system: EKVX
OVCAR-3 = system: OVCAR-3
RXF 393 = system: RXF 393
SF-295 = system: SF-295
KM-20L2 = system: KM-20L2
NCI-H460 = system: NCI-H460
SK-MEL-5 = system: SK-MEL-5
UACC-257 = system: UACC-257
HL-60 = system: HL-60
RPMI-8226 = system: RPMI-8226
NCI-H23 = system: NCI-H23
HOP-92 = system: HOP-92
LXFL 529 = system: LXFL 529
SF-268 = system: SF-268
NCI-H226 = system: NCI-H226
CCRF-CEM = system: CCRF-CEM
A549 = system: A549
OVCAR-4 = system: OVCAR-4
SK-MEL-28 = system: SK-MEL-28
DLD-1 = system: DLD-1
HCC 2998 = system: HCC 2998
SW-620 = system: SW-620
UO-31 = system: UO-31
ACHN = system: ACHN
SNB-75 = system: SNB-75
A498 = system: A498
OVCAR-5 = system: OVCAR-5
DMS-114 = system: DMS-114
SR = system: SR
Malme-3M = system: Malme-3M
XF498 = system: XF498
TK-10 = system: TK-10
MOLT-4 = system: MOLT-4
M19-MEL = system: M19-MEL
SNB-19 = system: SNB-19
LOX IMVI = system: LOX IMVI
HOP-62 = system: HOP-62
CAKI-1 = system: CAKI-1
MCF7 = system: MCF7
HCT-15 = system: HCT-15
MDA-MB-231 = system: MDA-MB-231
PC-3 = system: PC-3
COLO 205 = system: COLO 205
BT-549 = system: BT-549
DU-145 = system: DU-145
Hs-578T = system: Hs-578T
MDA-MB-435 = system: MDA-MB-435
T47D = system: T47D
DMS-273 = system: DMS-273

Structure (SMILES): CCOc1ccc2[nH]c3c(C)c4cc[n+](C)cc4c(C)c3c2c1
- GI50 (786-0): 149 nM (active)
- GI50 (HOP-18): 2620 nM (inactive)
- GI50 (SNB-78): 1090 nM (active)
- GI50 (IGROV-1): 2.18 µM (inactive)
- GI50 (HCT-116): 1820 nM (inactive)
- GI50 (SK-MEL-2): 1.51 µM (inactive)
- GI50 (U-251): 115 nM (active)
- GI50 (NCI-H522): 838 nM (active)
- GI50 (SK-OV-3): 2.88 µM (inactive)
- GI50 (HT-29): 3250 nM (inactive)
- GI50 (SF-539): 363 nM (active)
- GI50 (KM12): 1.57 µM (inactive)
- GI50 (SN12C): 140 nM (active)
- GI50 (K562): 1580 nM (inactive)
- GI50 (UACC-62): 1840 nM (inactive)
- GI50 (M14): 5810 nM (inactive)
- GI50 (EKVX): 2.57 µM (inactive)
- GI50 (OVCAR-3): 2.52 µM (inactive)
- GI50 (RXF 393): 6.41 µM (inactive)
- GI50 (SF-295): 125 nM (active)
- GI50 (KM-20L2): 3350 nM (inactive)
- GI50 (NCI-H460): 1940 nM (inactive)
- GI50 (SK-MEL-5): 1360 nM (inactive)
- GI50 (UACC-257): 2.97 µM (inactive)
- GI50 (HL-60): 4.67 µM (inactive)
- GI50 (RPMI-8226): 11300 nM (inactive)
- GI50 (NCI-H23): 929 nM (active)
- GI50 (HOP-92): 1.98 µM (inactive)
- GI50 (LXFL 529): 220 nM (active)
- GI50 (SF-268): 184 nM (active)
- GI50 (NCI-H226): 264 nM (active)
- GI50 (CCRF-CEM): 1.98 µM (inactive)
- GI50 (A549): 1180 nM (inactive)
- GI50 (OVCAR-4): 2540 nM (inactive)
- GI50 (SK-MEL-28): 2240 nM (inactive)
- GI50 (DLD-1): 900 nM (active)
- GI50 (HCC 2998): 3000 nM (inactive)
- GI50 (SW-620): 1280 nM (inactive)
- GI50 (UO-31): 16600 nM (inactive)

Structure (SMILES): COc1c(Cl)cc(Cl)cc1S(=O)O
- GI50 (SNB-78): > 100000 nM (inactive)
- GI50 (HCT-116): > 100000 nM (inactive)
- GI50 (SK-MEL-2): > 100 µM (inactive)
- GI50 (U-251): > 100000 nM (inactive)
- GI50 (ACHN): > 100000 nM (inactive)
- GI50 (NCI-H522): > 100000 nM (inactive)
- GI50 (SK-OV-3): > 100 µM (inactive)
- GI50 (HT-29): > 100000 nM (inactive)
- GI50 (SNB-75): > 100000 nM (inactive)
- GI50 (A498): > 100 µM (inactive)
- GI50 (SF-539): > 100000 nM (inactive)
- GI50 (KM12): > 100 µM (inactive)
- GI50 (SN12C): > 100000 nM (inactive)
- GI50 (K562): > 100000 nM (inactive)
- GI50 (OVCAR-5): > 100 µM (inactive)
- GI50 (UACC-62): > 100000 nM (inactive)
- GI50 (DMS-114): > 100000 nM (inactive)
- GI50 (M14): > 100000 nM (inactive)
- GI50 (SR): > 100000 nM (inactive)
- GI50 (EKVX): > 100 µM (inactive)
- GI50 (OVCAR-3): > 100 µM (inactive)
- GI50 (RXF 393): > 100 µM (inactive)
- GI50 (Malme-3M): > 100 µM (inactive)
- GI50 (XF498): > 100000 nM (inactive)
- GI50 (TK-10): > 100000 nM (inactive)
- GI50 (NCI-H460): > 100000 nM (inactive)
- GI50 (UACC-257): > 100 µM (inactive)
- GI50 (HL-60): > 100 µM (inactive)
- GI50 (NCI-H23): > 100000 nM (inactive)
- GI50 (LXFL 529): > 100000 nM (inactive)
- GI50 (MOLT-4): > 100 µM (inactive)
- GI50 (M19-MEL): > 100000 nM (inactive)
- GI50 (SF-268): > 100000 nM (inactive)
- GI50 (SNB-19): > 100000 nM (inactive)
- GI50 (CCRF-CEM): > 100 µM (inactive)
- GI50 (OVCAR-4): > 100000 nM (inactive)
- GI50 (SK-MEL-28): > 100000 nM (inactive)
- GI50 (DLD-1): > 100000 nM (inactive)
- GI50 (HCC 2998): > 100000 nM (inactive)
- GI50 (LOX IMVI): > 100 µM (inactive)
- GI50 (HOP-62): > 100000 nM (inactive)
- GI50 (UO-31): > 100000 nM (inactive)

Structure (SMILES): CC1=C(C)C(=O)O[C@@H]([C@](C)(O)[C@]2(O)CC[C@@]3(O)[C@@H]4C[C@H]5O[C@]56[C@@H](O)C=CC(=O)[C@]6(C)[C@H]4CC[C@]23C)C1
- GI50 (CAKI-1): 25 nM (active)
- GI50 (HOP-18): 45.4 nM (active)
- GI50 (SNB-78): 499 nM (active)
- GI50 (IGROV-1): 1.01 µM (active)
- GI50 (HCT-116): 182 nM (active)
- GI50 (SK-MEL-2): 0.451 µM (active)
- GI50 (U-251): 1880 nM (inactive)
- GI50 (SK-OV-3): 6.4 µM (inactive)
- GI50 (HT-29): 174 nM (active)
- GI50 (SNB-75): 46.8 nM (active)
- GI50 (SF-539): 774 nM (active)
- GI50 (SN12C): 1040 nM (active)
- GI50 (SF-295): 2990 nM (inactive)
- GI50 (Malme-3M): 0.33 µM (active)
- GI50 (XF498): 91.2 nM (active)
- GI50 (NCI-H460): 1600 nM (inactive)
- GI50 (SK-MEL-5): 414 nM (active)
- GI50 (UACC-257): 0.308 µM (active)
- GI50 (RPMI-8226): 95.9 nM (active)
- GI50 (HOP-92): 0.0373 µM (active)
- GI50 (MCF7): 186 nM (active)
- GI50 (SNB-19): 2170 nM (inactive)
- GI50 (NCI-H226): 11000 nM (inactive)
- GI50 (CCRF-CEM): 0.0851 µM (active)
- GI50 (HCT-15): 137 nM
- GI50 (A549): 4010 nM (inactive)
- GI50 (HCC 2998): 1710 nM (inactive)
- GI50 (LOX IMVI): 0.133 µM (active)
- GI50 (HOP-62): 1110 nM (active)
- GI50 (UO-31): 587 nM (active)

Structure (SMILES): N#Cc1cn(C2OC(CO)C(O)C2O)c2ncnc(N)c12 (stereo unspecified)
- GI50 (786-0): 24.1 nM (active)
- GI50 (MDA-MB-231): 15.8 nM (active)
- GI50 (HOP-18): 109 nM (active)
- GI50 (SNB-78): 191 nM (active)
- GI50 (IGROV-1): 47.1 nM (active) and 23.8 nM (active)
- GI50 (SK-MEL-2): 18.2 nM (active) and 29.6 nM (active)
- GI50 (SK-OV-3): 26 nM (active) and 42.9 nM (active)
- GI50 (PC-3): 15 nM (active)
- GI50 (A498): 57.4 nM (active) and 114 nM (active)
- GI50 (SF-539): 45.4 nM (active) and 76.4 nM (active)
- GI50 (KM12): 24.1 nM (active) and 44.4 nM (active)
- GI50 (COLO 205): 14.6 nM (active) and < 16.4 nM (active)
- GI50 (OVCAR-5): 112 nM (active) and 81.7 nM (active)
- GI50 (SR): < 10 nM (active)
- GI50 (EKVX): 60.3 nM (active) and 94.8 nM (active)
- GI50 (OVCAR-3): 25.4 nM (active) and 45 nM (active)
- GI50 (BT-549): 57.7 nM (active)
- GI50 (DU-145): 39.3 nM (active)
- GI50 (RXF 393): 23.2 nM (active) and 21.7 nM (active)
- GI50 (KM-20L2): 47.6 nM (active)
- GI50 (Malme-3M): 39.9 nM (active) and 47.5 nM (active)
- GI50 (XF498): 4.14 nM (active)
- GI50 (TK-10): 14 nM (active)
- GI50 (Hs-578T): 30.2 nM (active)
- GI50 (UACC-257): 62.2 nM (active) and 81.8 nM (active)
- GI50 (HL-60): < 10 nM (active) and < 13.8 nM (active)
- GI50 (HOP-92): 46.2 nM (active) and 76.6 nM (active)
- GI50 (MDA-MB-435): < 16.9 nM (active)
- GI50 (MOLT-4): 23.9 nM (active) and 25.3 nM (active)
- GI50 (NCI-H226): 66.4 nM (active) and 66.2 nM (active)
- GI50 (CCRF-CEM): 16.1 nM (active) and 18 nM (active)
- GI50 (T47D): 19.9 nM (active)
- GI50 (DLD-1): 45 nM (active)
- GI50 (LOX IMVI): 14.7 nM (active) and 24.9 nM (active)
- GI50 (DMS-273): 40.9 nM (active)
